From PubChem BioAssay AID330 (DTP/NCI, 2004)
Values joined by “and” are separate entries in the source; they are usually repeats but may differ in a detail not shown here. Equal entries are not always repeated. Inconclusive results and toxic doses are left out. Rule for the calls: active = survival T/C of 150% or more; inactive = T/C below 125% in these data. Numbered stars: 1 amine (or outer) side, 2 acyl side, 3 side chain; on linkers, the order of the positions; unused ones are H or OH. Bridge positions count the residues as written; N and C are the ends. Square brackets hold non-standard residues; d marks the D form. Peptide text beside a SMILES is read from it. ξ: configuration not given here. X1 = CC[C@@H](C)[C@H](N[*:1])[C@H](O)CC(=O)OC(C(=O)C(C)C(=O)[*:2])C(C)C; ξNMeY = CNC(Cc1ccc(O)cc1)C(=O)O; ξNMeL = CNC(CC(C)C)C(=O)O; ξL = CC(C)CC(N)C(=O)O; ξT = CC(O)C(N)C(=O)O; ξP = O=C(O)C1CCCN1

Tested on: P388 leukemia ip, CD2F1 mice, survival T/C
Test: NCI In Vivo Anticancer Drug Screen. Data for tumor model P388 Leukemia (intraperitoneal) in CD2F1 (CDF1) mice
Details: endpoint: median survival time, higher = longer survival
How it was run: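 Mice carrying the transplanted tumor received test compound or vehicle. Survival was recorded in each group, and the value is the treated-group measurement divided by that of the vehicle-treated control group.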

[1] = dose: 12.5 mg/kg/injection, schedule: Q01DX009 (ip), vehicle: saline with Tween-80
[2] = dose: 25.0 mg/kg/injection, schedule: Q01DX009 (ip), vehicle: saline with Tween-80
[3] = dose: 50.0 mg/kg/injection, schedule: Q01DX009 (ip), vehicle: saline with Tween-80

Measured: T/C

COc1cccc2c1N(COC(C)=O)C(=O)C1C=CC(C)(C)OC21 (stereo not drawn)
inactive: dose: 8.0 mg/kg/injection, schedule: Q01DX009 (ip), vehicle: Klucel (hydroxypropylcellulose) (HPC) 97 % of control | dose: 16.0 mg/kg/injection, schedule: Q01DX009 (ip), vehicle: Klucel (hydroxypropylcellulose) (HPC) 95 % of control | dose: 32.0 mg/kg/injection, schedule: Q01DX009 (ip), vehicle: Klucel (hydroxypropylcellulose) (HPC) 97 % of control | dose: 64.0 mg/kg/injection, schedule: Q01DX009 (ip), vehicle: Klucel (hydroxypropylcellulose) (HPC) 92 % of control

Nc1nc(N)c2nn(C3OC(CO)C(O)C3O)nc2n1 (stereo not drawn)
inactive: dose: 25.0 mg/kg/injection, schedule: Q01DX001 (ip), vehicle: saline 103 % of control | dose: 50.0 mg/kg/injection, schedule: Q01DX001 (ip), vehicle: saline 94 % of control | dose: 100.0 mg/kg/injection, schedule: Q01DX001 (ip), vehicle: saline 105 % of control | dose: 200.0 mg/kg/injection, schedule: Q01DX001 (ip), vehicle: saline 100 % of control | dose: 400.0 mg/kg/injection, schedule: Q01DX001 (ip), vehicle: saline 100 % of control

CC(=O)/C=C1\C(=O)OCC1(C)C
inactive: dose: 100.0 mg/kg/injection, schedule: Q04DX003 (ip), vehicle: saline 105 % of control | dose: 200.0 mg/kg/injection, schedule: Q04DX003 (ip), vehicle: saline 108 % of control | dose: 400.0 mg/kg/injection, schedule: Q04DX003 (ip), vehicle: saline 111 % of control

O=C([O-])C(=O)[O-].[Co+3].[NH2-].[NH2-].[NH2-].[NH2-].[O-][Cl+3]([O-])([O-])O
inactive: dose: 12.5 mg/kg/injection, schedule: Q04DX003 (ip), vehicle: water 89 % of control | dose: 25.0 mg/kg/injection, schedule: Q04DX003 (ip), vehicle: water 95 % of control | dose: 50.0 mg/kg/injection, schedule: Q04DX003 (ip), vehicle: water 98 % of control | dose: 100.0 mg/kg/injection, schedule: Q04DX003 (ip), vehicle: water 94 % of control

Cc1cc[n+](Cc2cc3ccccc3nc2Cl)cc1C
inactive: dose: 3.75 mg/kg/injection, schedule: Q01DX005 (ip), vehicle: saline 110 % of control | dose: 7.5 mg/kg/injection, schedule: Q01DX005 (ip), vehicle: saline 93 % of control | dose: 15.0 mg/kg/injection, schedule: Q01DX005 (ip), vehicle: saline 104 % of control | dose: 30.0 mg/kg/injection, schedule: Q01DX005 (ip), vehicle: saline 107 % of control

CC[C@@H](C)[C@@H]1NC(=O)C(NC(=O)C(CC(C)C)NC)C(C)OC(=O)C(Cc2ccc(OC)cc2)N(C)C(=O)C2CCCN2C(=O)C(CC(C)C)NC(=O)C(C)C(=O)C(C(C)C)OC(=O)C[C@H]1O (stereo partly drawn) (H-[ξNMeL][ξT][X1][ξL][ξP][ξNMeY](Me); ester 2-C)
active: dose: 2.0 mg/kg/injection, schedule: Q01DX005 (ip), vehicle: water 150 % of control
inactive: dose: 0.06 mg/kg/injection, schedule: Q01DX005 (ip), vehicle: water 104 % of control | dose: 0.13 mg/kg/injection, schedule: Q01DX005 (ip), vehicle: water 112 % of control | dose: 0.25 mg/kg/injection, schedule: Q01DX005 (ip), vehicle: water 114 % of control | dose: 0.5 mg/kg/injection, schedule: Q01DX005 (ip), vehicle: saline + alcohol 113 % of control | dose: 1.0 mg/kg/injection, schedule: Q01DX005 (ip), vehicle: saline + alcohol 124 % of control | dose: 0.25 micrograms/kg/injection, schedule: Q01DX005 (ip), vehicle: saline + alcohol 106 % of control | dose: 0.5 micrograms/kg/injection, schedule: Q01DX005 (ip), vehicle: saline + alcohol 110 % of control | dose: 1.0 micrograms/kg/injection, schedule: Q01DX005 (ip), vehicle: saline + alcohol 96 % of control | dose: 2.0 micrograms/kg/injection, schedule: Q01DX005 (ip), vehicle: saline + alcohol 100 % of control

C[C@]12CCC(=O)C(O)=C1CC[C@@H]1[C@@H]2CC[C@]2(C)C(=O)CC[C@@H]12
inactive: dose: 12.5 mg/kg/injection, schedule: Q01DX009 (ip), vehicle: Klucel (hydroxypropylcellulose) (HPC) 111 % of control and 96 % of control | dose: 25.0 mg/kg/injection, schedule: Q01DX009 (ip), vehicle: Klucel (hydroxypropylcellulose) (HPC) 100 % of control and 111 % of control | dose: 50.0 mg/kg/injection, schedule: Q01DX009 (ip), vehicle: Klucel (hydroxypropylcellulose) (HPC) 105 % of control and 106 % of control | dose: 100.0 mg/kg/injection, schedule: Q01DX009 (ip), vehicle: Klucel (hydroxypropylcellulose) (HPC) 92 % of control and 93 % of control | dose: 200.0 mg/kg/injection, schedule: Q01DX009 (ip), vehicle: Klucel (hydroxypropylcellulose) (HPC) 92 % of control and 96 % of control | dose: 400.0 mg/kg/injection, schedule: Q01DX009 (ip), vehicle: Klucel (hydroxypropylcellulose) (HPC) 111 % of control and 88 % of control

CCCCCCCCCCSc1ncnc2nc[nH]c12
inactive: [1] 100 % of control | [2] 90 % of control | [3] 90 % of control

O=c1c2oc3ccccc3c2cnn1CO
inactive: [1] 103 % of control and 97 % of control | [2] 100 % of control and 105 % of control | [3] 102 % of control and 108 % of control | dose: 100.0 mg/kg/injection, schedule: Q01DX009 (ip), vehicle: saline with Tween-80 105 % of control and 117 % of control
